Reference: ChEMBL document CHEMBL1131899, “First fatty acylated dipeptides to affect muscarinic receptor ligand binding” (Bioorg Med Chem Lett, 1999)
Where a SMILES comes first, the peptide text is derived from it. The star is where a group is joined. Palmitoyl = CCCCCCCCCCCCCCCC(=O)*; Myristoyl = CCCCCCCCCCCCCC(=O)*; OBn = c1ccc(CO*)cc1

Assays:
[1] = biological target: T1, Muscarinic acetylcholine receptor M2 (Homo sapiens, UniProt P08172); test: (§1) Binding of [3H]QNB to HM2 receptor was evaluated by saturation binding assay
T1 sequence (P08172 whole entry): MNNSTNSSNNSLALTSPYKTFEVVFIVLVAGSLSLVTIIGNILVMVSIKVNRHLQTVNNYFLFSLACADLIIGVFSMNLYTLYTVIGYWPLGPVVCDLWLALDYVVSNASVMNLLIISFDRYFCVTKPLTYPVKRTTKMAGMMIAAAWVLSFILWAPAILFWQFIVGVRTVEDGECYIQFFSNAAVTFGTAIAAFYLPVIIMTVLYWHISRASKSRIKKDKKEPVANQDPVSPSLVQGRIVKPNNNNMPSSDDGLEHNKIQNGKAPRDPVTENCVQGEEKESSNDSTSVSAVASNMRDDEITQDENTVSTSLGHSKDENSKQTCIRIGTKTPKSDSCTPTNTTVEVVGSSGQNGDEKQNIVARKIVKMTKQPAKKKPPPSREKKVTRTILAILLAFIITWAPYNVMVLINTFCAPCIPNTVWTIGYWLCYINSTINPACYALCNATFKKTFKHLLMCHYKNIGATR

[2] = biological target: T2, Muscarinic acetylcholine receptor M2 (Homo sapiens) (UniProt P08172); test: as §1
T2 sequence (whole entry): T1 sequence (P08172 whole entry)

[3] = biological target: T3, Muscarinic acetylcholine receptor M1 (Homo sapiens) (UniProt P11229); test: (§2) Binding of [3H]QNB to HM1 receptor was evaluated by saturation binding assay
T3 sequence (whole entry): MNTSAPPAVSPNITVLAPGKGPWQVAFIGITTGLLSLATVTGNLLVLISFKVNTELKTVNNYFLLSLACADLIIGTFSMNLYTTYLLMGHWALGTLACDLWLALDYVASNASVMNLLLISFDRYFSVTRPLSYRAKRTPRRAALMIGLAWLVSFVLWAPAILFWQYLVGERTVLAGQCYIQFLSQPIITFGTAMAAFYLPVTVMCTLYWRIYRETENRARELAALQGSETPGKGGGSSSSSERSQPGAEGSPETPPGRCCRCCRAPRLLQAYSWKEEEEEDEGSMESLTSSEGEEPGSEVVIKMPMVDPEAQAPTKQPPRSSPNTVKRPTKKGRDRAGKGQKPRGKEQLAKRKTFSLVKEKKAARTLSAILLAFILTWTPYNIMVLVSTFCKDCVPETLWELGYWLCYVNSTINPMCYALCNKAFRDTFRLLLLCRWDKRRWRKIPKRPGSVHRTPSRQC

[4] = biological target: T4, Muscarinic acetylcholine receptor M1 (Homo sapiens, UniProt P11229); test: as §2
T4 sequence (P11229 whole entry): T3 sequence (whole entry)

For CCCCCCCCCCCCCCCC(=O)OC[C@H](NC(=O)CNC(=O)CCCCCCCCCCCCC)C(=O)OCc1ccccc1 (Myristoyl-Gly-Ser(Palmitoyl)-OBn), the Kd [1] was 1.78 nM, the Bmax [2] was 1.8 pmol/mg and the Bmax [3] was 1.2 pmol/mg. The Kd [4] was 0.03 nM.

CCCCCCCCCCCCCC(=O)NCC(=O)N[C@@H](CO)C(=O)OCc1ccccc1 (Myristoyl-Gly-Ser-OBn) showed a Kd [1] of 0.15 nM, a Bmax [2] of 0.8 pmol/mg and a Bmax [3] of 1.7 pmol/mg. It also gave a Kd [4] of 0.04 nM.
